{"source": "patent US20050267212A1", "about": "“Omega-3 fatty acids in the treatment of depression” (priority 1997, published 2005)", "origin": "cited, not measured here", "target": "T1, cyclooxygenase-2 (Homo sapiens, UniProt P35354)", "T1 sequence (P35354 18-604)": "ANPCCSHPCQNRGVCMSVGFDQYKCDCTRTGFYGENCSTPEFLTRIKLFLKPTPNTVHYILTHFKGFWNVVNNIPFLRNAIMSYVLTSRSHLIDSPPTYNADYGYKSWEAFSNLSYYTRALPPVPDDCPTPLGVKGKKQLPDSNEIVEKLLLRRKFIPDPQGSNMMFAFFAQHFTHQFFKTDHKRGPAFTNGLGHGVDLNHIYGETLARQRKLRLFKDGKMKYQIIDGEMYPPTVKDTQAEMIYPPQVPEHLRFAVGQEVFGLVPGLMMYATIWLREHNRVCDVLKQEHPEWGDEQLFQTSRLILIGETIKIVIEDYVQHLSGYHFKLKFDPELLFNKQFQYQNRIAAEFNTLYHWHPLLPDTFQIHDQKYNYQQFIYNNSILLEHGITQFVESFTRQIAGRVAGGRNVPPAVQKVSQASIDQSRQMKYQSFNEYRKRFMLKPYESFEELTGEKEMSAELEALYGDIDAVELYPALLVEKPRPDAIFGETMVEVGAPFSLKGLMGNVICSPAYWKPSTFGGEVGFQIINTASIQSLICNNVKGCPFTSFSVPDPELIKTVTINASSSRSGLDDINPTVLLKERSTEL", "conditions": "cultured human mast cells"}
{"compound": "CC/C=C\\C/C=C\\C/C=C\\C/C=C\\C/C=C\\CCCC(=O)O", "note": "[EPA, eicosapentanoic acid]", "values": [{"measurement": "effect on cyclooxygenase-2", "value": "direct inhibition"}]}
